Measured values reported in patent US10265337B2, “Use of A3 adenosine receptor agonist in osteoarthritis treatment” (CAN-FITE BIOPHARMA LTD., priority 2005, dated 2019).

What was measured:
[1] = test system: human fibroblast like synoviocytes (FLS); test: MTT proliferation assay, human fibroblast like synoviocytes; type: cell-based; settings: CF101 10 nM added for the last 24 hours of 72 hours, FLS from OA patients, FIG. 1A
Method: The effect of IB-MECA (herein at times CF101) alone or in combination with MTX, on the proliferation of the human or rat fibroblast like synoviocytes (FLS) was tested. […] Human synovial fluid samples were collected from osteoarthritis (OA) patients undergoing paracenthesis. The fluid was centrifuged and the supernatant removed. The cells were resuspended in DMEM containing type I collagenase (4 mg/ml), for 2 hours, and shacked vigorously at 37°. The released cells in the supernatant were harvested by centrifugation and were cultured in DMEM containing 10% FBS, 2 mM glutamine, 100 U/ml penicillin, 100 μg/ml streptomycin, 1% non essential amino acids, 1% sodium pyruvate and […] HEPES buffer in a 37° C., 5% CO2 incubator. After overnight culture, non-adherent cells were removed. The adherent cells (FLS) were subcultured at a 1:2 ratio, and the cells from passages 4 through 10 were used in the experiments. The effect of CF101 alone or in combination with MTX, on the proliferation of the FLS was tested utilizing an MTT assay. The cells (5×10^4/ml cells) were incubated in 96-well microtiter plates for 72 hours in the growth medium. At the last 24 hours CF101 (10 nM) were added to the cultures.

[2] = test system: mono-idoacetate (MIA) experimental osteoarthritis (OA); test: MIA experimental osteoarthritis model, knee diameter; type: in vivo, rat; settings: male Wistar rats; CF101 100 μg/kg PO twice daily from day 7 post-injection; vs control group, P=9.48317E-06; FIG. 2
Method: (§1) In the following study the effect of IB-MECA (herein, at times, CF101) on the development of experimental osteoarthritis (OA) was determined. In this study the mono-idoacetate (MIA) experimental model was utilized. The MIA is a rat experimental model that rapidly reproduces the clinical and pathological characteristic of OA. […] Infra-articular injection of MIA induces chondrocyte death in the articular cartilage of rodent. Specifically, male Wistar rats (˜200 gr) (Harlan laboratories) were anesthetized with Isoflurane and the right leg was flexed at a 90° angle of the knee. The MIA was dissolved in physiological saline and 2 mg, at a volume of 50 μL were injected intra-articular of the right foot of each animal, using a 27-gauge, 0.5-inch needle. Treatment with CF101, 100 μg/kg, Per Oz (PO), twice daily was initiated at day 7 post-injection. Knee diameter was measured using calibrated digital caliper adapted by reinforcing the tips for knee diameter measure. The results presented in FIG. 2 show the delta between the diameter of the MIA injected knee (Right knee) and the diameter of the MIA un-injected knee (Left knee) within the same animal. The group of the control is compared to the CF101 treated group (5 animals in each group).

rat FLS = test: MTT proliferation assay, rat fibroblast like synoviocytes; type: cell-based; settings: CF101 10 nM added for the last 24 hours of 72 hours, FLS from adjuvant induced arthritis rats, FIG. 1B
Method: The effect of IB-MECA (herein at times CF101) alone or in combination with MTX, on the proliferation of the human or rat fibroblast like synoviocytes (FLS) was tested. […] Synovia tissue from adjuvant induced arthritis rats was collected. The tissue was minced and subjected for digestion in 4 mg/ml type I collagenase and 0.25 w/v trypsin in DMEM. The mixture was shacked vigorously for 4 hours at 37°. The released cells were separated from the supernatant by centrifugation and cultured in DMEM containing 15% FCS, 2 mM glutamine, 100 U/ml penicillin, 100 μg/ml streptomycin in a 37° C., 5% CO2 incubator. After overnight incubation the nonadherent cells were removed. The adherent cells (FLS) were sub-cultured at a 1:2 ratio, and the cells from passages 4 through 10 were used in the experiments. The effect of CF101 alone or in combination with MTX, on the proliferation of the FLS was tested utilizing an MTT assay. The cells (5×10^4/ml cells) were incubated in 96-well microtiter plates for 72 hours in the growth medium. At the last 24 hours CF101 (10 nM) were added to the cultures.

IKK = test: Western blot of knee joint protein extracts, IKK; type: in vivo, rat; settings: OA rats, CF101 treated vs control, FIG. 4C
Source text: (§2) To explore the fate of the A3AR and downstream key signaling proteins participating in the NF-kB and Wnt signaling pathways, knee joints protein extracts from control and CF101 treated animal were subjected to Western blot analysis.

A3AR = molecular target: T1, A3AR (Rattus norvegicus, UniProt P28647); test: Western blot of knee joint protein extracts, A3AR; type: in vivo; settings: OA rats, CF101 treated vs control, FIG. 4A
T1 construct: knee joints protein extracts from control and CF101 treated animal were subjected to Western blot analysis; from tissue; host or cells: rat knee joint (OA rats)
T1 sequence (P28647 1-320): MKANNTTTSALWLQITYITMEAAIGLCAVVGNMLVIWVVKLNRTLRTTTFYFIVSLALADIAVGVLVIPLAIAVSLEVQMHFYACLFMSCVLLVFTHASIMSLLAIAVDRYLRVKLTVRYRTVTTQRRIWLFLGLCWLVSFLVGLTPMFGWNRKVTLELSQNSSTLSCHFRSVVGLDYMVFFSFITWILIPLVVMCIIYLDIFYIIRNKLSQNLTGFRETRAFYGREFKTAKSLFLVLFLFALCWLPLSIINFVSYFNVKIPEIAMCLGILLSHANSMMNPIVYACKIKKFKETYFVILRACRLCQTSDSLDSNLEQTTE
Source text: as §2

GSK-3β = test: Western blot of knee joint protein extracts, GSK-3β; type: in vivo, rat; settings: OA rats, CF101 treated vs control, FIG. 4E
Source text: as §2

[3] = test system: mono-idoacetate (MIA) experimental osteoarthritis (OA); test: MIA experimental osteoarthritis model, roentgenographic examination of knees; type: in vivo, rat; settings: MIA rats; CF101 100 μg/kg PO twice daily; FIGS. 3A-3D
Method: as §1, with “post-injection.” for “post-injection. Knee diameter was measured using calibrated digital caliper adapted by reinforcing the tips for knee diameter measure. The results presented in FIG. 2 show the delta between the diameter of the MIA injected knee (Right knee) and the diameter of the MIA un-injected knee (Left knee) within the same animal. The group of the control is compared to the CF101 treated group (5 animals in each group).”

[4] = oral, healthy young men; cited from earlier work
PI3K = test: Western blot of knee joint protein extracts, PI3K; type: in vivo, rat; settings: OA rats, CF101 treated vs control, FIG. 4B
Source text: as §2

Q: Which results are given for `CNC(=O)[C@H]1O[C@@H](n2cnc3c(NCc4cccc(I)c4)ncnc32)[C@H](O)[C@@H]1O` [CF101, 1-deoxy-1-{6-[({3-iodophenyl}methyl)amino]-9H-purine-9-yl}-N-methyl-β-D-ribofuranuronamide]?
A: effect on the proliferation of human FLS [1]: marked inhibitory effect; development of tissue swelling (delta between diameter of MIA injected and un-injected knee) [2]: significantly inhibited; effect on the proliferation of rat FLS (rat FLS): marked inhibitory effect; IKK expression level in knee joints (IKK): down-regulation; A3AR expression level in knee joints (A3AR): down-regulated; GSK-3β expression level in knee joints (GSK-3β): up-regulated; roentgenographic examination of knees [3]: normal tibial epiphysial line without sclerosis; half life in human plasma [4]: 8 to 10 h; PI3K expression level in knee joints (PI3K): down-regulation
